The text below walks through data of patent US20070232577A1, “Synthetic pentacyclic triterpenoids and derivatives of betulinic acid and betulin” (Advanced Life Sciences, Inc., priority 2006, published 2007).

In brackets after ≈: the same amount, converted by molar mass.

For data set [1], the system named is A-375 (melanoma). In words: MTS cell viability assay, A-375. The conditions noted are these: Homo sapiens, 72 h. The data set is classed as cell-based. The method, then: (§1) All treatments were performed in triplicate. […] Cells were incubated at 37° C. for 72 h.
(Formazan colour is commonly taken as a measure of viable cells.)

In data set [2] the test system is LN-229 (glioblastoma). Nature of the data set: MTS cell viability assay, LN-229. Format: cell-based. Conditions: Homo sapiens, 72 h. The method, then:
as §1

Data set [3] has as its system OVCAR-3 (ovarian carcinoma). In words: MTS cell viability assay, OVCAR-3. Format: cell-based. Conditions: Homo sapiens, 72 h. How it is done: as §1
The test system of data set [4] is HT-29 (colon carcinoma). Nature of the data set: MTS cell viability assay, HT-29. The data set is classed as cell-based. The conditions noted are these: Homo sapiens, 72 h. The method, then: as §1
The test system of data set [5] is MCF-7 (breast carcinoma). In words: MTS cell viability assay, MCF-7. The conditions noted are these: Homo sapiens, MCF7, 72 h. Format: cell-based. The method, then:
as §1

Data set [6] has as its system Daoy. Nature of the data set: Caspase activation assay, Daoy. Format: cell-based. How it is done: All treatments were performed in duplicate. […] Cells were incubated at 37° C. for 8 h. Caspase assay reagent (per 96-well plate) was prepared according to manufacturer's instructions (Homogeneous Caspases Assay, fluorometric, Roche) by combining 6.3 mL Incubation Buffer with 0.7 mL of Substrate Stock Solution. Caspase assay reagent (70 μL) was added to each well; the plate was gently shaken by hand for 15-20 seconds and incubated at 37° C. for 4 h.
Fluorescent emission was measured at 535 nm on a plate reader using the “homogeneous caspase” program (excitation Wavelength=490 nm, emission wavelength=535 nm). Duplicate wells for each treatment were averaged following background (no cells) subtraction (emission 535 nm value from all experimental emission 535 nm values) for each drug concentration.
DMSO treatment represented baseline caspase activation in the absence of drug. The percent changes in caspase activity were plotted on the y-axis for each drug treatment.

For data set [7], the system named is Daoy (glioblastoma). In words: MTS cell viability assay, Daoy.
For data set [8], the system named is SK-MEL-2 (melanoma). In words: MTS cell viability assay, SK-MEL-2. Conditions: Homo sapiens, SK-MEL-2, 72 h, read-out: IC50 SK-MEL-2.
Protocol: Cells were plated, the evening before treatment, for each treatment on 96-well plates (1×10^4 cells/well) in 100 μL volume per well. Drug solutions were prepared by diluting each test compound in DSMO (10 mM) with the appropriate cell growth media for each individual cell line, or in “Universal Media” if several cell lines were to be assayed in parallel, immediately prior to cell treatment. Universal Media consisted of 5 mL sodium pyruvate (100×liquid stock, CellGro), 5 mL glucose (100×, 45% liquid stock, CellGro), 5 mL Penicillin/Streptomycin (100×liquid stock, CellGro), 10 mL sodium bicarbonate (50×liquid stock, CellGro), 25 mL Fetal Calf Serum, 1.25 mL insulin (4 mg/mL, Gibco) and 449 mL RPMI media with 2 mM glutamine for a total volume of 500 mL. Cells were treated by aspirating media from each well and adding 80 μL of each drug solution to the attached cells. All treatments were performed in triplicate. Growth media (80 μL) were added to 3 blank wells (no cells) to measure background from the growth media Growth media alone (no DMSO or test compond) was added to 2 wells containing cells to measure the baseline MTS activity and vehicle (DMSO) control solutions were also included to monitor basal toxicity from DMSO. Cells were incubated at 37° C. for 72 h. MTS reagent (per 96-well plate) were prepared by combining 2 mL of MTS working solution (Cell Titer AQueous Non-Radioactive Cell Proliferation Assay, Promega, cat#G1112), 100 μL of 0.92 mg/mL phenazine methosulfate/Dulbecco's PBS and 2.1 mL growth media. MTS reagent (40 μL) were added to each well and incubated at 37° C. for 1.5 to 4 h. Plates were gently shaken by hand until solution in each well appeared homogenous. Absorbances at 490 nm were measured on a plate reader at multiple time points following the addition of MTS reagent for each plate. Triplicate absorbance (490 nm) measurements were averaged following background (no cell) subtraction for each drug concentration. Percent Cell Viability was calculated for each drug concentration using the following equation: {[Absorbances(drug treated)]/[Absorbances(DMSO treated)]}×100%
Percent viability (y-axis) was plotted against drug concentration (x-axis) and the resulting graph was used to determine the 50% inhibitory concentration (IC50) for each drug.

In general, IC50 refers to the concentration at which inhibition is half-maximal. In the case of `C=C(C)[C@@H]1CC[C@]2(COC(=O)CBr)CC[C@]3(C)[C@H](CC[C@@H]4[C@@]5(C)CC[C@H](O)C(C)(C)[C@@H]5CC[C@]43C)[C@@H]12` [Compound 13, ((1R,3aS,5aR,5bR,7aR,9S,11aR,11bR,13aR,13b R)-9-hydroxy-5a,5b,8,8,11a-pentamethyl-1-(prop-1-en-2-yl)icosahydro-1H-cyclopenta[a]chrysen-3a-yl)methyl 2-bromoacetate], the half-inhibitory concentration (IC50) was 29 µg/mL (≈ 51.4 µM) in data set [1]; 6 µg/mL (≈ 10.6 µM) in data set [2]; 6 µg/mL (≈ 10.6 µM) in data set [3]; 10 µg/mL (≈ 17.7 µM) in data set [4]; 45 µg/mL (≈ 79.8 µM) in data set [5]; 1.4 µg/mL (≈ 2.48 µM) in data set [7] (Homo sapiens, Daoy, 72 h, read-out: IC50 Daoy). In data set [8], the half-maximal inhibitory concentration (IC50) came out at 33 µg/mL (≈ 58.5 µM). In addition, in data set [6] (Daoy, percent change versus DMSO), the “caspase activation in Daoy” value is on record as “approx. 200%”. Further, the “selectivity of apoptosis activation, Daoy versus SK-MEL-2 (in words)” value in data set [6] (caspase assay, Daoy in preference to SK-MEL-2) is “selectively activate apoptosis in Daoy in preference to SK-MEL-2”. Moreover, the “selectivity of cytotoxicity for Daoy (in words)” value in data set [7] (MTS assay, Daoy versus other cell lines) was “robust cytotoxic activity in Daoy but not in SK-MEL-2”.
